EC50 data for 21 compounds are collected here from US20250122218A1, “MODULATORS OF CYSTIC FIBROSIS TRANSMEMBRANE CONDUCTANCE REGULATOR” (Vertex Pharmaceuticals Incorporated, priority 2022, published 2025).

pEC50: −log10 of the molar value. A value given as a limit tells only on which side of the number the result lay.

The target in the experiment is T1, CFTR in F508del/MF-HBE cells (Homo sapiens, UniProt P13569, DEL508-508).
T1 construct: human bronchial epithelial (HBE) cells derived from CF subjects heterozygous for F508del and a minimal function CFTR mutation; endogenous in cells; host or cells: primary human bronchial epithelial cells from CF subjects (F508del/MF-HBE)
T1 sequence (P13569 with tags, fused parts or gaps DEL508-508): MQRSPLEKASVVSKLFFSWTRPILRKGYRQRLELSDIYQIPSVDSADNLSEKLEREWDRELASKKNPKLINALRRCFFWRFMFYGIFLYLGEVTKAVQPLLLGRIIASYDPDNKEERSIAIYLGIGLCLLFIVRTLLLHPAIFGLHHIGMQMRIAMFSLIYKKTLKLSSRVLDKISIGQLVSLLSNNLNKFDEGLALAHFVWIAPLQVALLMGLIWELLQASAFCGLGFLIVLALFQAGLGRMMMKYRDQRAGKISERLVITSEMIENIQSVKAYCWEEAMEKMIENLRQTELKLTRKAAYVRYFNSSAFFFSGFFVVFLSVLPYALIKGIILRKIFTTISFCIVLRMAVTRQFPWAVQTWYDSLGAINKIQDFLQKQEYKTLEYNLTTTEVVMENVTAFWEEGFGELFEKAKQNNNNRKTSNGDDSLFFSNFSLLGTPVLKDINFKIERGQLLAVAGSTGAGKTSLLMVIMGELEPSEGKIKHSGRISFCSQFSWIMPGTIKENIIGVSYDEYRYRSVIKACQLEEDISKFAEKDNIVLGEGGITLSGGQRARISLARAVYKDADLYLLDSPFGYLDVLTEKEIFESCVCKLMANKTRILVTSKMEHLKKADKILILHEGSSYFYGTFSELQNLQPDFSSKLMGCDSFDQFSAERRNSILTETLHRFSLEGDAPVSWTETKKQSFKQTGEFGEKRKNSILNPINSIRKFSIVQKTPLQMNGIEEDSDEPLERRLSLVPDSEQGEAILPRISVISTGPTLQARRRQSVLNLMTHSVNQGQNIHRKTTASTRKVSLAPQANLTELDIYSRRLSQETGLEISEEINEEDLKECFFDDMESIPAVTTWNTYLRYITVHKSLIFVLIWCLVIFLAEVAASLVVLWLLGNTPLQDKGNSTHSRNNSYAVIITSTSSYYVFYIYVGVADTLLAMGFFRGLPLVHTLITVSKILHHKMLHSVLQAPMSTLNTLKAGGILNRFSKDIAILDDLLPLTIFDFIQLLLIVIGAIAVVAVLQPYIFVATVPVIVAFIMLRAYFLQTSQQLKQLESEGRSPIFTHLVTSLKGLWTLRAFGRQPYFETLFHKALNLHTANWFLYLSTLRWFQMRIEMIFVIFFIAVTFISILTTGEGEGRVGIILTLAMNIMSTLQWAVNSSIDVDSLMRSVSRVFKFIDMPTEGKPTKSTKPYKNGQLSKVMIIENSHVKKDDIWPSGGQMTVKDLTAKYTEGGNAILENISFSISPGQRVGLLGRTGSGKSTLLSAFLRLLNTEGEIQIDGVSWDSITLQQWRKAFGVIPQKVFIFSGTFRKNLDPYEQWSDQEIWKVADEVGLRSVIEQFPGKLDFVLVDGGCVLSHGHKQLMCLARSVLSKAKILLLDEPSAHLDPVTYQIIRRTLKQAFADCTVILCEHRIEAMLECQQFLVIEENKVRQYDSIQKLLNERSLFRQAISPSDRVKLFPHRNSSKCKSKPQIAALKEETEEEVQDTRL
Put plainly: Ussing chamber assay of CFTR-mediated short-circuit currents (identification of potentiator compounds). Format: cell-based. The following applies: potentiator incubated 18-24 hours at 37° C. in combination with 10 μM corrector, in the presence of 20% human serum, CFTR-mediated ISC. How it is done:
Ussing chamber experiments were performed using human bronchial epithelial (HBE) cells derived from CF subjects heterozygous for F508del and a minimal function CFTR mutation (F508del/MF-HBE) and cultured as previously described (Neuberger T, Burton B, Clark H, Van Goor F; Methods Mol. Biol. 2011:741:39-54). After four days the apical media was removed, and the cells were grown at an air liquid interface for >14 days prior to use.
To isolate the CFTR-mediated short-circuit (ISC) current, F508del/MF-HBE grown on Costar® Snapwell™ cell culture inserts were mounted in an Ussing chamber and the transepithelial ISC was measured under voltage-clamp recording conditions (Vhold=0 mV) at 37° C. The basolateral solution contained (in mM) 145 NaCl, 0.83 K2HPO4, 3.3 KH2PO4, 1.2 MgCl2, 1.2 CaCl2), 10 Glucose, 10 HEPES (pH adjusted to 7.4 with NaOH) and the apical solution contained (in mM) 145 NaGluconate, 1.2 MgCl2, 1.2 CaCl2), 10 glucose, 10 HEPES (pH adjusted to 7.4 with NaOH) and 30 μM amiloride to block the epithelial sodium channel. Forskolin (20 μM) was added to the apical surface to activate CFTR, followed by apical addition of a CFTR inhibitor cocktail consisting of BPO, GlyH-101 and CFTR inhibitor 172 (each at 20 μM final assay concentration) to specifically isolate CFTR currents. The CFTR-mediated ISC (μA/cm^2) for each condition was determined from the peak forskolin response to the steady-state current following inhibition.
The activity of the CFTR potentiator compounds on the CFTR-mediated ISC was determined in Ussing chamber studies as described above. The F508del/MF-HBE cell cultures were incubated with the potentiator compounds at a range of concentrations in combination with 10 μM (14S)-8-[3-(2-{dispiro[2.0.2.1]heptan-7-yl}ethoxy)-1H-pyrazol-1-yl]-12,12-dimethyl-2λ^6-thia-3,9,11,18,23-pentaazatetracyclo[17.3.1.111,14.05,10]tetracosa-1(22),5,7,9,19(23),20-hexaene-2,2,4-trione for 18-24 hours at 37° C. and in the presence of 20% human serum. The concentration of potentiator compounds and (14S)-8-[3-(2-{dispiro[2.0.2.1]heptan-7-yl}ethoxy)-1H-pyrazol-1-yl]-12,12-dimethyl-2λ^6-thia-3,9,11,18,23-pentaazatetracyclo[17.3.1.111,14.05,10]tetracosa-1(22),5,7,9,19(23),20-hexaene-2,2,4-trione used during the 18-24 hours incubations was kept constant throughout the Ussing chamber measurement of the CFTR-mediated ISC to ensure compounds were present throughout the entire experiment. The efficacy and potency of the putative F508del potentiators was compared to that of the known potentiator, ivacaftor (N-[2,4-bis(1,1-dimethylethyl)-5-hydroxyphenyl]-1,4-dihydro-4-oxoquinoline-3-carboxamide).

For the compound `CC1CCCCCCC(O)(C(F)(F)F)C2=NN=C(O2)c2nc1c(C(F)(F)F)cc2N` (single isomer, unassigned) [Compound 19, 17-amino-13-methyl-6,15-bis(trifluoromethyl)-19-oxa-3,4,18-triazatricyclo[12.3.1.12,5]nonadeca-1(18),2,4,14,16-pentaen-6-ol], the pEC50 (as a rule, −log10 of the EC50, conventionally taken in molar units) is over 6.30.
Next, `CC(=O)N1CCCCCC(O)(C(F)(F)F)C2=NN=C(O2)c2nc(c(C(F)(F)F)cc2N)C1` (single isomer, unassigned) [Compound 20, 1-[17-amino-6-hydroxy-6,15-bis(trifluoromethyl)-19-oxa-3,4,12,18-tetrazatricyclo[12.3.1.12,5]nonadeca-1(18),2,4,14,16-pentaen-12-yl]ethanone]: over 6.30; `CC(=O)N1CCCCCC(O)(C(F)(F)F)C2=NN=C(O2)c2nc(c(C(F)(F)F)cc2N)C1` (single isomer, unassigned) [Compound 21, 1-[17-amino-6-hydroxy-6,15-bis(trifluoromethyl)-19-oxa-3,4,12,18-tetrazatricyclo[12.3.1.12,5]nonadeca-1(18),2,4,14,16-pentaen-12-yl]ethanone]: under 6.00.
Regarding `Nc1cc(C(F)(F)F)c2nc1-c1nnc(o1)C(O)(C(F)(F)F)CCCCCN(C(=O)C1CCC1)C2` (single isomer, unassigned) [Compound 22, [17-amino-6-hydroxy-6,15-bis(trifluoromethyl)-19-oxa-3,4,12,18-tetrazatricyclo[12.3.1.12,5]nonadeca-1(18),2,4,14,16-pentaen-12-yl]-cyclobutyl-methanone], the pEC50 is over 6.30.
Consider `Nc1cc(C(F)(F)F)c2nc1-c1nnc(o1)C(O)(C(F)(F)F)CCCCCN(C(=O)C1CCC1)C2` (single isomer, unassigned) [Compound 23, [17-amino-6-hydroxy-6,15-bis(trifluoromethyl)-19-oxa-3,4,12,18-tetrazatricyclo[12.3.1.12,5]nonadeca-1(18),2,4,14,16-pentaen-12-yl]-cyclobutyl-methanone], for which the pEC50 was under 6.00.
Next, `Nc1cc(C(F)(F)F)c2nc1-c1nnc(o1)C(O)(C(F)(F)F)CCCCCCC2(O)C(F)(F)F` (single isomer, unassigned) [Compound 25, 17-amino-6,13,15-tris(trifluoromethyl)-19-oxa-3,4,18-triazatricyclo[12.3.1.12,5]nonadeca-1(18),2,4,14,16-pentaene-6,13-diol]: under 6.00.
Next, `Nc1cc(C(F)(F)F)c2nc1-c1nnc(o1)C(O)(C(F)(F)F)CCCCCCC2(O)C(F)(F)F` (single isomer, unassigned) [Compound 26, 17-amino-6,13,15-tris(trifluoromethyl)-19-oxa-3,4,18-triazatricyclo[12.3.1.12,5]nonadeca-1(18),2,4,14,16-pentaene-6,13-diol]: over 6.30.
Take `Nc1cc(C(F)(F)F)c2nc1-c1nnc(o1)C(O)(C(F)(F)F)CCCCCCC2(O)C(F)(F)F` (single isomer, unassigned) [Compound 27, 17-amino-6,13,15-tris(trifluoromethyl)-19-oxa-3,4,18-triazatricyclo[12.3.1.12,5]nonadeca-1(18),2,4,14,16-pentaene-6,13-diol]: the pEC50 is over 6.30.
With `Nc1cc(C(F)(F)F)c2nc1-c1nnc(o1)C(O)(C(F)(F)F)CCCCCCC2(O)C(F)(F)F` (single isomer, unassigned) [Compound 28, 17-amino-6,13,15-tris(trifluoromethyl)-19-oxa-3,4,18-triazatricyclo[12.3.1.12,5]nonadeca-1(18),2,4,14,16-pentaene-6,13-diol], the pEC50 was under 6.00.
For the compound `CC(C)(C)ON=C1CCCCCC[C@](O)(C(F)(F)F)C2=NN=C(O2)c2nc1c(C(F)(F)F)cc2N` (single isomer, unassigned) [Compound 29], the pEC50 was over 6.30.
Next, `CC(C)(C)ON=C1CCCCCC[C@](O)(C(F)(F)F)C2=NN=C(O2)c2nc1c(C(F)(F)F)cc2N` (single isomer, unassigned) [Compound 30]: over 6.30; `Nc1cc(C(F)(F)F)c2nc1-c1nnc(o1)[C@@](O)(C(F)(F)F)CCCCCCC2=NO` (single isomer, unassigned) [Compound 31]: over 6.30.
Next, `Nc1cc(C(F)(F)F)c2nc1-c1nnc(o1)C(O)(C(F)(F)F)CCCCCCC1=NN=C2O1` (single isomer, unassigned) [Compound 32, 20-amino-6,18-bis(trifluoromethyl)-22,23-dioxa-3,4,14,15,21-pentaazatetracyclo[15.3.1.12,5.113,16]tricosa-1(21),2,4,13,15,17,19-heptaen-6-ol]: over 6.30; `Nc1cc(C(F)(F)F)c2nc1-c1nnc(o1)C(O)(C(F)(F)F)CCCCCCC1=NN=C2O1` (single isomer, unassigned) [Compound 33, 20-amino-6,18-bis(trifluoromethyl)-22,23-dioxa-3,4,14,15,21-pentaazatetracyclo[15.3.1.12,5.113,16]tricosa-1(21),2,4,13,15,17,19-heptaen-6-ol]: under 6.00.
Next, `Nc1cc(C(F)(F)F)c2nc1-c1nnc(o1)C(O)(C(F)(F)F)CCC(=O)CCCC2=O` (single isomer, unassigned) [Compound 34, 17-amino-6-hydroxy-6,15-bis(trifluoromethyl)-19-oxa-3,4,18-triazatricyclo[12.3.1.12,5]nonadeca-1(18),2,4,14,16-pentaene-9,13-dione]: over 6.30; `Nc1cc(C(F)(F)F)c2nc1-c1nnc(o1)C(O)(C(F)(F)F)CCC(=O)CCCC2=O` (single isomer, unassigned) [Compound 35, 17-amino-6-hydroxy-6,15-bis(trifluoromethyl)-19-oxa-3,4,18-triazatricyclo[12.3.1.12,5]nonadeca-1(18),2,4,14,16-pentaene-9,13-dione]: under 6.00; `Nc1cc(C(F)(F)F)c2nc1-c1nnc(o1)C(O)(C(F)(F)F)CCCC(=O)CCC2=O` (single isomer, unassigned) [Compound 36, 17-amino-6-hydroxy-6,15-bis(trifluoromethyl)-19-oxa-3,4,18-triazatricyclo[12.3.1.12,5]nonadeca-1(18),2,4,14,16-pentaene-10,13-dione]: under 6.00.
With `Nc1cc(C(F)(F)F)c2nc1-c1nnc(o1)C(O)(C(F)(F)F)CCCC(=O)CCC2=O` (single isomer, unassigned) [Compound 37, 17-amino-6-hydroxy-6,15-bis(trifluoromethyl)-19-oxa-3,4,18-triazatricyclo[12.3.1.12,5]nonadeca-1(18),2,4,14,16-pentaene-10,13-dione], the pEC50 is under 6.00.
Next, `CC1CCCCC[C@](O)(C(F)(F)F)C2=NN=C(O2)c2nc(c(C(F)(F)F)cc2N)C1` (single isomer, unassigned) [Compound 55]: over 6.30; `CC1CCCCC[C@](O)(C(F)(F)F)C2=NN=C(O2)c2nc(c(C(F)(F)F)cc2N)C1` (single isomer, unassigned) [Compound 56]: over 6.30.
Next, `Nc1cc(C(F)(F)F)c2nc1-c1nnc(o1)C(O)(C(F)(F)F)c1cc(ccc1F)CCCCC2=O` (single isomer, unassigned) [Compound 57, 20-amino-8-fluoro-6-hydroxy-6,18-bis(trifluoromethyl)-23-oxa-3,4,21-triazatetracyclo[15.3.1.12,5.17,11]tricosa-1(21),2,4,7(22),8,10,17,19-octaen-16-one]: over 6.30.
